Test results reported in US6583179B2, “Substituted aminoalkylamide derivatives as antagonists of follicle stimulating hormone” (Ortho-McNeil Pharmaceutical, Inc., priority 1999, dated 2003).

Target: T1, human FSH receptor (Homo sapiens, UniProt P23945)
T1 construct: expressed in transfected cells; host or cells: Chinese Hamster Ovary cells (K-1; ATCC), line rhFSHR-cLUC
T1 sequence (P23945 18-695): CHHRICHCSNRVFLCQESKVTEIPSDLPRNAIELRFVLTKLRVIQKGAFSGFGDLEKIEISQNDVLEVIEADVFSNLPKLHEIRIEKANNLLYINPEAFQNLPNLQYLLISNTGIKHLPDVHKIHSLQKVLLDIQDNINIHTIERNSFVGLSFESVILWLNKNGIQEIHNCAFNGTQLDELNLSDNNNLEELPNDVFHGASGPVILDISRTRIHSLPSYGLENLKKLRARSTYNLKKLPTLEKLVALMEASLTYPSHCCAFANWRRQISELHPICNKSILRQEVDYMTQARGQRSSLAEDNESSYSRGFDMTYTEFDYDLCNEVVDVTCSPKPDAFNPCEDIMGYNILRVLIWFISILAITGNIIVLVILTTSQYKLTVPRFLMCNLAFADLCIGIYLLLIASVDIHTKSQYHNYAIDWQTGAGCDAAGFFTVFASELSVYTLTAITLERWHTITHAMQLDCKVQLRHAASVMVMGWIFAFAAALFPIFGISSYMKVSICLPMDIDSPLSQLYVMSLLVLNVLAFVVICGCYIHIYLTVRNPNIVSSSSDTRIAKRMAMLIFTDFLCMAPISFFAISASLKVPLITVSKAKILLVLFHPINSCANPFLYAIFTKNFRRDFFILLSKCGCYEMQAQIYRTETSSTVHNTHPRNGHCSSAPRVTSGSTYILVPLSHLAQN
Test: hFSHR CHO cAMP assay (rhFSHR-cLUC cells, FSH-stimulated cAMP, radioimmunoassay)
Type: cell-based
Settings: inhibition of cAMP produced by EC70 dose of FSH (4.85 nM); maximum concentration 50 μM
Text: Minimum Essential Medium-Alpha (MEM-alpha), fetal bovine serum (FBS), penicillin, streptomycin, geneticin, trypsin-EDTA, Hanks' Balanced Salt Solution (no Calcium chloride, Magnesium chloride, Magnesium sulfate, or phenol red; Ca-Mg free HBSS) were purchased from Gibco BRL (Gaithersburg, Md.). The cells used for the FSH bioassay (rhFSHR-cLUC) were Chinese Hamster Ovary cells (K-1; ATCC) stably transformed with human FSH receptor (pSVK-FSHr) and a cAMP luciferase reporter gene (responsive CGα-180LUC). Follicle Stimulating Hormone (Metrodin; Fertinex) was purchased from Serono, Ltd. (Norwell, Mass.).
The rhFSHR-cLUC cell cultures were maintained in MEM-Alpha supplemented with 10% heat-inactivated FBS (HIFBS), 100 U/ml penicillin, 100 μg/mL streptomycin, and included 0.1 g/L geneticin for stable cell selection.
Forty-eight hours after the cells were plated in sterile 96-well culture plates (Corning, Corning, N.Y.) the spent media was removed and 50 μl assay media (modified growth media with 2% HIFBS) containing 2 mM IBMX (3-isobutyl-1-methyl-xanthine) was added to the cells. Compounds (25 μl) in the appropriate concentration were added followed 5 minutes later by an EC70 dose of FSH (25 μl; 160 ng/ml; 4.85 nM). After 10 minutes @ 22.5° C. (room temperature) the reaction was terminated by addition of 25 μL 0.5 N hydrochloric acid to each well. The amount of cAMP produced was measured by radioimmunoassay in a FlashPlate (DuPont, Boston, Mass.). To each flash plate 60 μL flash plate buffer was added followed by 40 μL acidified cell sample or cAMP standard, followed with the addition of 100 μl ^125l-cAMP trace. The FlashPlates were sealed, incubated overnight @ room temperature, and counted in a Packard TopCount (Packard Instrument Co., Meriden, Conn.). The cAMP radioimmunoassay results were calculated using DPM conversion and log-logit transformation of % binding (Excel program).
Test compounds were solubilized in 30% dimethyl sulfoxide (DMSO) at a concentration of 10 mM before diluting to appropriate concentrations in assay medium. The final DMSO concentration in the treated cells and in the control cells was 0.75%.
For individual experiments, a set of samples were tested including a vehicle control (assay buffer), a reference compound (hFSH) at a range of concentrations designed to elicit a minimal to maximal response, and several concentrations of test compounds together with an EC70 concentration of standard (hFSH challenge). Each compound was performed in duplicates for the primary evaluation and quadruplicates for the dose-ranging experiments. The cAMP radioimmunoassay raw data (pmol) were calculated to provide average pmol cAMP produced/ml and the percent inhibition was calculated as shown below.
% Inh=[1−(Avg.pmoltest compound+standard)/(Avg.pmolstandard)]×100
EC50 values were calculated from an analysis of the concentration-inhibition data using a linear analysis of the data transformed to a log-logit format.

| EC50 [nM] | Structure (SMILES) |
| --- | --- |
| 40 | C[C@@H](CN(CC(=O)NCc1ccc(CN)cc1)S(=O)(=O)c1ccc(-c2ccccc2Cl)cc1)c1ccccc1 [Compound 198] |
| 80 | Cc1ccccc1-c1ccc(S(=O)(=O)N(CC(=O)NCc2ccc(CN)cc2)C[C@@H](C)c2ccccc2)cc1 [Compound 215] |
